Assay results published in article PMC8165693, “Sensing Enzyme Activation Heat Capacity at the Single-Molecule Level Using Gold-Nanorod-Based Optical Whispering Gallery Modes” (ACS Applied Nano Materials, 2021).

Key:
[1] = biological target: T1, maltose-inducible α-glucosidase (MalL) (Bacillus subtilis, UniProt O06994); experiment: ensemble steady-state kinetics, colorimetric assay in solution; assay type: biochemical; details: free enzyme in solution; temperature of this constant not given
T1 construct: full-length, recombinant, purified as in earlier work
T1 sequence (O06994 whole entry): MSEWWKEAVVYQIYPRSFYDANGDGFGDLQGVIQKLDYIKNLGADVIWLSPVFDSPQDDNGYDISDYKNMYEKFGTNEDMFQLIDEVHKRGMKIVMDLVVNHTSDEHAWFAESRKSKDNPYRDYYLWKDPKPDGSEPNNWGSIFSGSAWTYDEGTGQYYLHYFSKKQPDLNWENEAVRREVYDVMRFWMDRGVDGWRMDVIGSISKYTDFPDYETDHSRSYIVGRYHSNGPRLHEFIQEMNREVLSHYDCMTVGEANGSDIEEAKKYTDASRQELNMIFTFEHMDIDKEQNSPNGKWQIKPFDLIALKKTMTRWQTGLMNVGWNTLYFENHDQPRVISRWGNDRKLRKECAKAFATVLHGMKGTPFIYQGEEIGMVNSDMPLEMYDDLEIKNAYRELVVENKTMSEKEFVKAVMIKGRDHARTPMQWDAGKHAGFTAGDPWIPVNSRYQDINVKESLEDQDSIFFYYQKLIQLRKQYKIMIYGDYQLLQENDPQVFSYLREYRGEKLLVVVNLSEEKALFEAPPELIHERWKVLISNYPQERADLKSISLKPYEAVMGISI
From the text: ensemble steady-state kinetics, colorimetric assay in solution on maltose-inducible α-glucosidase (MalL) | both the KM and ΔCP^‡ values are similar between WT MalL and S135C MalL

[2] = biological target: T2, maltose-inducible α-glucosidase (MalL) (Bacillus subtilis, UniProt O06994, S135C); experiment: as above; assay type: biochemical; details: free enzyme in solution; temperature of this constant not given
T2 construct: full-length, recombinant, purified as in earlier work
T2 sequence (O06994 whole entry S135C): as the sequence (O06994 whole entry) above, with S135C counted along it

Substance: 4-nitrophenyl-β-D-glucopyranoside
- Km [1]: 108 ± 34.2 µM
- Km [2]: 141 ± 39.6 µM
